Measured values taken from US6664368B1, “Inhibition of nuclear import by backbone cyclic peptide analogs” (priority 1997, dated 2003).
Numbered stars: 1 amine (or outer) side, 2 acyl side, 3 side chain; on linkers, the order of the positions; unused ones are H or OH. Bridge positions count the residues as written; N and C are the ends. Square brackets hold non-standard residues; d marks the D form. Ends that are not written are not given here. Peptide text beside a SMILES is read from it. N(6-aminohexyl)Gly = O=C(CN(CCCCCCN[*:3])[*:1])[*:2]; X1 = CC(C)[C@H](NC(=O)CCCCC(=O)[*:1])C(=O)[*:2]

Columns and labels:
[1] = system: trypsin; experiment: Stability to proteolytic cleavage by trypsin; type: in vitro ADME; settings: trypsin solution; room temperature, TEA buffer pH 7.8, HPLC peak area; read-out: half life (t½) of digestion by trypsin (converted)
Experimental: Method: A mixture containing 0.05 ml of trypsin solution (8% w/v in HCl 0.001M), 0.5 ml TEA buffer pH=7.8 (Geiger, R.; Fritz, H. In Methods of enzymatic analysis; H. U. Bergmeyer, et al. Eds.; Weinheim: Verlag-chemie: 1984; pp 119-129) and 0.2 ml of peptide 22 (BCvir) solution in water (initial concentration of 1.25 mg/ml) was injected to HPLC (C3 column, gradient of 5-60% acetonitrile:TDW containing 0.1% TFA, 35 minutes) immediately after addition of the peptide (t=0). The mixture was incubated at room temperature and samples were injected every 70 min. […] The peak area of the peptide at each time interval was compared to the peak area of the peptide in t=0, as a measure of the relative peptide concentration.

[2] = system: Hut 78 cells; settings: 0.1, 1, 10 and 100 μg/ml; 1, 2, 4 and 7 days post seeding
Experimental: Method: Hut 78 cells (0.5×10^6/ml) were cultured without or with 0.1, 1, 10 and 100 μg/ml of BCvir. The number of living cells was determined by staining with trypan blue 1, 2, 4 and 7 days post seeding,.

[3] = system: nuclear import of VprN/VprC-BSA conjugate in permeabilized cells; experiment: Nuclear import of Vpr peptide-BSA conjugates in permeabilized cells; type: cell-based
From the text: Viral protein r (Vpr), an HIV-1 auxiliary protein which mediates nuclear import of the viral preintegration complex (PIC), contains two regions, N- and C-terminal, which have been proposed to function as a nuclear localization signal (NLS). We have synthesized peptides corresponding to both regions (designated as VprN and VprC), conjugated them to bovine serum albumin (BSA), and tested their ability to mediate nuclear import in permeabilized cells.

[4] = system: nuclear import of SV40-NLS-BSA (biotinylated BSA-NLS); experiment: Quantitative ELISA-based nuclear import assay, inhibition of NLS-BSA (SV40-NLS-BSA) uptake in permeabilized Colo-205 cells; type: cell-based; design: key to Nuclear uptake of SV40-BSA: +: most of the cells in the field (more than 70-80%) did show nuclear uptake (presence of fluorescent dye within the nuclei); −: most of the cells in the field (more than 70-80%) did show nuclear uptake (their cytoplasm, and not the nuclei, were fluorescently labeled); settings: for Nuclear uptake of SV40-BSA: in the presence of the free peptide, ELISA-based assay; for Nuclear entry (%) of SV40-NLS-BSA: WGA 0.6 mg/ml or Tat-NLS peptide 1 mg/ml preincubated 30 minutes, entry with cytosolic factors = 100%
Experimental: (§1) Nuclear import was quantitatively determined essentially as described before (Melchior, et al. (1993) J. Cell. Biol. 123 (6). 1649-1659), except that a suspension of Colo-205 cells was used instead of a suspension of HeLa cells and 500 nM biotinylated BSA-NLS were used as a transport substrate. The immunomodule strips were coated with rabbit anti-BSA serum instead of using the IgG fraction. The results given are an average of triplicate determination whose standard deviation never exceeded ±20%.
Nuclear uptake was determined by the ELISA-based assay, except where indicated. IC50 values were determined by using peptides and transport substrates in molar ratios between 500:1 and 0.005:1 respectively. Cysteine residues in all the peptides are not part of the original sequence and were added in order to conjugate them to BSA.
Inhibition of nuclear uptake was estimated by addition of the above listed peptides to a nuclear transport system using SV40-NLS-BSA as a transport substrate.
(§2) Nuclear transport using SV40-NLS-BSA and Tat-NLS-BSA as transport substrates was performed employing the in-vitro ELISA system.

[5] = system: translocation of FL-NLS-BSA into nuclei of digitonin-permeabilized HeLa cells; experiment: Nuclear import estimated by fluorescence microscopy; type: cell-based; design: key: +: most of the cells in the field (more than 70-80%) did show nuclear uptake (presence of fluorescent dye within the nuclei); −: most of the cells in the field (more than 70-80%) did show nuclear uptake (their cytoplasm, and not the nuclei, were fluorescently labeled); settings: in the presence of the free peptide; based on fluorescent microscopy observations (footnote 3)
From the text: HeLa cells were cultivated on 10 mm coverslips to subconfluent density and then permeabilized with digitonin as described before (Broder, et al. ibid). Linear peptides bearing the NLS signal of the SV40 large T-antigen were covalently attached to fluorescently labeled (with FITC) BSA molecules (Goldfarb, et al. (1986) Nature 322, 641-644) and translocation of the resulting fluorescently labeled-NLS-BSA molecules (FL-NLS-BSA) into nuclei of digitonin-permeabilized HeLa cells was followed by fluorescent microscopy observations, as described (Broder, et al. ibid).

[6] = system: nuclear import of Tat-NLS-BSA; experiment: In-vitro ELISA nuclear transport with Tat-NLS-BSA as transport substrate; type: cell-based, human; settings: WGA 0.6 mg/ml or Tat-NLS peptide 1 mg/ml preincubated 30 minutes; entry with cytosolic factors = 100%
Experimental: as §1
The entry of the conjugates into nuclei of permeabilized colo cells was estimated as described above. ATP was depleted, WGA (0.6 mg/ml) and Tat-NLS peptide (1 mg/ml) were preincubated for 30 minutes at room temperature with the permeabilized cells before adding the BSA conjugates.
as §2

[7] = SV40-NLS-BSA substrate, peptide:substrate molar ratios between 500:1 and 0.005:1
[8] = purified peptides, inhibition of nuclear import of NLS-BSA

Molecule	IC50 [4, 7]	Nuclear uptake of SV40-BSA [4]	further results
CC(C)C[C@H](NC(=O)[C@H](CCCCN)NC(=O)CN1CCCCCCNC(=O)[C@H](C(C)C)NC(=O)CCCCC(=O)N[C@@H](CCCCN)C(=O)N[C@@H](CCCCN)C(=O)N[C@@H](CCCCN)C1=O)C(N)=O [BCvir] (KKK[N(6-aminohexyl)Gly]KL-NH2; linker N-4 via X1)			half-life [1]: 7 h; effect on growth rate of uninfected cells [2]: did not affect the growth rate
PKKKRKVC [SV40 large T-antigen NLS]	0.02 µM	−	inhibition of nuclear import of the VprN conjugate [3]: not inhibited; IC50 [4, 8]: 0.001 µM
CVKRKKKPG (Human Immunodeficiency Virus (HIV-1)) [SV40 reverse]		+	
^78DWHLGQGV^85 (Human Immunodeficiency Virus (HIV-1)) [Vif 78-85]			Nuclear uptake of SV40-BSA [5]: +
^88EWRKKRYS^95 (Human Immunodeficiency Virus (HIV-1)) [Vif 88-95]		−	
wheat germ agglutinin [WGA]			Nuclear entry (%) of Tat-NLS-BSA [6]: 53.6%; inhibition of nuclear import of the VprN conjugate [3]: inhibited; Nuclear entry (%) of SV40-NLS-BSA [4]: 49.8%
NCCCC[C@H](NC(=O)CN1CCCCCCNC(=O)CNC(=O)CCCCC(=O)N[C@@H](CCCCN)C(=O)N[C@@H](CCCCN)C(=O)N[C@@H](CCCCN)C1=O)C(N)=O [peptide 19.4]			half-life [1]: 9 h
GKKKYKLKHC [HIV-MA NLS]			IC50 [4, 8]: 12 µM
C^7KRSMGGWSAIRERMRR^22 [Nef NLS]	11 µM	−	
C^35RQARRNRRRRWRERQRQ^51 (N-terminal cysteine; UniProt P04618 35-51, looked up, fragment) [Rev NLS]	347 µM	−	
C^48GRKKRRQRRRAHQN^61 (N-terminal cysteine; UniProt P04608 48-61, looked up, fragment) [Tat NLS]	147 µM	−	Nuclear entry (%) of Tat-NLS-BSA [6]: 15.4%; Nuclear entry (%) of SV40-NLS-BSA [4]: 52%
^85VSIEWRKK^92 (UniProt P69723 85-92, looked up, fragment) [Vif 85-92]	253 µM	−	
C^88EWRKKRYSTOV^98 [Vif 88-98] (CEWRKKRYSTQV; not fully specified; printed as C^88EWRKKRYSTOV^98 [Vif 88-98]; UniProt P69723 88-98, looked up, fragment)	62 µM	−	
^51ISSEVHIPLGDARLV^65 [Vif 51-65]			Nuclear uptake of SV40-BSA [5]: +
CGPKNKRKV [SV40 mutant]		+	
C^88EWRKKRYSTOV^98 [Vif 88-98 K91L] (CEWRLKRYSTQV; not fully specified; printed as C^88EWRKKRYSTOV^98 [Vif 88-98 K91L])		+	
^30YVSGKARGWFYRHHY^44 [Vif 30-44]			Nuclear uptake of SV40-BSA [5]: +
^41RHHYESPHPRISSEV^55 [Vif 41-55]			Nuclear uptake of SV40-BSA [5]: +
